Test results as given in patent US20090099167A1, “Organic compounds” (Novartis Institutes for Biomedical Research, priority 2004, published 2009).
Read-outs that look alike come from different tables or passages of the source.

Tests used:
[1] = target: c-Src kinase (Homo sapiens, UniProt P12931); assay: c-Src kinase inhibition; type: biochemical
Excerpt: An appropriate assay is described in Andrejauskas-Buchdunger et al., Cancer Res. 52, 5353-8 (1992).

[2] = target: T1, Tek (Homo sapiens, UniProt Q02763); assay: Tek kinase inhibition, GST-fused kinase domain; type: biochemical; conditions: Table 5; read-out: Tek, IC50 class
T1 construct: N-terminally GST-fused (pAcG1, Pharmingen) KDR, Flt-1, Flk-1, Tek and PDGFR-β kinase domains are obtained from ProQinase, Freiburg, Germany; host or cells: Sf9 or High Five (baculovirus)
T1 sequence (Q02763 824-1096 limits assumed, species assumed): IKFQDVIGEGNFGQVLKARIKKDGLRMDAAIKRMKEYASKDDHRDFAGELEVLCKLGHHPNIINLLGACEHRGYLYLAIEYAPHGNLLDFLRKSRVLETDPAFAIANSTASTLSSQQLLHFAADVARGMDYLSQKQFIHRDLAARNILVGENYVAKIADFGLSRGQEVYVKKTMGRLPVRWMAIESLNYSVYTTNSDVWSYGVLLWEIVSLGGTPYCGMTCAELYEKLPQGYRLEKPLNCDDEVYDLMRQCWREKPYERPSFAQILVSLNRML
Excerpt: The inhibition of IGF-1R and Ins-R can be determined as follows: The baculovirus donor vector pfbgx3IGFIRcd is used to generate a recombinant baculovirus that expresses the amino acid region 950-1337 of the mature peptide cytoplasmic domain of the human IGF-IR. To generate the cDNA fragment encoding the amino acid region 919-1343 of the intra-cytoplasmic kinase domain of the human insulin receptor, pC5hInsR is used. The fragments of the human IGF-IR and Ins-R are cloned, expressed and small-scale purified as a factor Xa-cleavable glutathione-S-transferase (GST)-fusion protein using the Bac-to-Bac™ system (GIBCO BRL) of recombinant baculovirus generation. Virus containing media is collected from the transfected cell culture and used for infection to increase its titer. Virus containing media obtained after two rounds of infection is used for large-scale protein expression. Cell extracts are prepared and loaded onto a glutathione-Sepharose (Pharmacia) column. After washing, the GST-tagged proteins are then eluted with a glutathione-containing buffer. Purified protein is stored at −70° C. in elution buffer. Tyrosine protein kinase assays with purified GST-IGF-1R and GST-ins-R are carried in a final volume of 30 μl containing 20 mM Tris-HCl, pH 7.6, 10 mM MgCl2, 0.01 mM Na3VO4, 1% DMSO, 1 mM DTT, 3 μg/ml poly(Glu,Tyr) 4:1 and 10 μM ATP (γ-[^33P]-ATP 0.1 μCi). The assay is performed in 96-well plates at ambient temperature for 20 min and terminated by addition of 25 μl 0.05 M EDTA pH 7.0. An aliquot of 40 μl is spotted with a multichannel dispenser on Whatman P81 membranes mounted in a Millipore Microtiter filter manifold connected to a low vacuum source. After elimination of liquid, the membrane is transferred to a sequence of 4 washing baths containing 0.5% H3PO4 and one with EtOH (shaking incubation for 10 min each), dried, mounted onto a Hewlett Packard TopCount manifold added 10 μl Microscint® and counted. Compounds of formula (I) show up to 90% inhibition of Ins-R at 10,000 nM, preferably between 60-90% inhibition. The inhibition of Tek can be determined as follows: The procedure of the expression, purification and assay these kinases has been described. Fabbro et al., Pharmacol. Ther. 82(2-3) 293-301 (1999). In brief, the glutathione S-transferase (GST) gene from the pAcG1 vector (Pharmingen) is excised with EcoRV and EcoRI and inserted into the cloning site of the Fast-Bac baculoviral vector (GIBCO) creating a 5530 bp vector with N-terminal cloning sites derived from the pAcG1 fusion vector (FBG0). The C-terminal cloning site may be any cloning site (from the Fast-Bac vector) downstream of the N-terminal cloning site used. N-terminally GST-fused (pAcG1, Pharmingen) KDR, Flt-1, Flk-1, Tek and PDGFR-β kinase domains are obtained from ProQinase, Freiburg, Germany. Tek is recloned into the FBG1 vector by EcoRI excision and ligation into EcoRI digested FBG1 (FBG1-Tek). The coding sequences for the whole cytoplasmic domain of c-Kit (aa 544-976) and c-Fms (aa 538-972) are amplified by PCR from human uterus and from human bone marrow cDNA libraries (Clontech), respectively. The amplified DNA fragments are fused to GST by cloning them into FBG1 as BamHI-EcoRI insertions, to yield FBG1-c-Kit and FBG1-c-Fms. Tek is recloned into the FBG0 transfer vector by EcoRI excision and ligation into EcoRI digested FBG0 (FBG-Tie2/Tek). FGFR-1 and c-met kinase domains are obtained by PCR from human A431 cells. N-terminal primers contain an overhanging EcoRI site, while C-terminal primers contain a XhoI site to aid cloning into the transfer vectors. After digestion of both the PCR fragments and FBG0 the cleavage products are gel-purified and ligated together to form the kinase constructs (FBG-Met, FBG-FGFR-1).
Viruses for each of the kinases are made according to the protocol supplied by GIBCO. […]

[3] = Table 5, read-out: c-scr, IC50 class

Sequence of c-Src kinase (P12931 whole entry): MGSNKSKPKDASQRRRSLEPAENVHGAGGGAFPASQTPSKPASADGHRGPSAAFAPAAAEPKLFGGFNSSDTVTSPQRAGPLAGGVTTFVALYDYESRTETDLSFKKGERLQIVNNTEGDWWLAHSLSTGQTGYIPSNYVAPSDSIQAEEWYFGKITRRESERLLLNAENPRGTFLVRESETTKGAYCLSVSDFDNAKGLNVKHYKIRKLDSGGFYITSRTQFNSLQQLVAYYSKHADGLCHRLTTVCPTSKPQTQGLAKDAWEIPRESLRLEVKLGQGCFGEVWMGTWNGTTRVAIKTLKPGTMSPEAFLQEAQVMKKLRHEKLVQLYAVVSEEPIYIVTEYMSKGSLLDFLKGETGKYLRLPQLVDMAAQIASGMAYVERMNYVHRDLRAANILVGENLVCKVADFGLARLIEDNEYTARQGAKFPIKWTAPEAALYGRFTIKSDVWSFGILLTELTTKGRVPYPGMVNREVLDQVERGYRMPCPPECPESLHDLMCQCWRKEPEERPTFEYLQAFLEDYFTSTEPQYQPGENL

Row | Structure (SMILES) | IC50 ([1]; Table 4, read-out: s-Scr, activity (IC50 for kinase inhibition)) [nM] | melting point [°C] | IC50 [2] [nM] | IC50 [1, 3] [nM]
1 | COc1cc(N2CCN(C)CC2)ccc1-c1cnn2c(N)c(-c3cccc(Cl)c3)c(C)nc12 [Example 75, 6-(3-Chloro-phenyl)-3-[2-methoxy-4-(4-methyl-piperazin-1-yl)-phenyl]-5-methyl-pyrazolo[1,5-a]pyrimidin-7-ylamine] |  | 215 to 217 |  | 
2 | CN1CCN(c2cccc(-c3cnn4c(N)c(-c5ccccc5Cl)cnc34)c2)CC1 [Example 78, 6-(2-Chloro-phenyl)-3-[3-(4-methyl-piperazin-1-yl)-phenyl]-pyrazolo[1,5-a]pyrimidin-7-ylamine] |  | 200 to 203 | 1000 to 10000 | 
3 | Cc1nc2c(-c3cccc(N4CCN(C)CC4)c3)cnn2c(N)c1-c1ccc(F)c(Cl)c1 [Example 82, 6-(3-Chloro-4-fluoro-phenyl)-5-methyl-3-[3-(4-methyl-piperazin-1-yl)-phenyl]pyrazolo[1,5-a]pyrimidin-7-ylamine] |  | 224 to 226 | > 10000 | < 1000
4 | CN1CCN(c2cccc(-c3cnn4c(N)c(Cc5cccc(Br)c5)cnc34)c2)CC1 [Example 85, 6-(3-Bromo-benzyl)-3-[3-(4-methyl-piperazin-1-yl)-phenyl]pyrazolo[1,5-a]pyrimidin-7-ylamine] |  | 170 to 171 | > 10000 | < 1000
5 | COc1ccc(-c2cnn3c(N)c(-c4cccc(Cl)c4)c(CF)nc23)cc1OC [Example 92, 6-(3-Chloro-phenyl)-3-(3,4-dimethoxy-phenyl)-5-fluoromethyl-pyrazolo[1,5-a]pyrimidin-7-ylamine] |  | 228 to 230 | > 10000 | 
6 | Cc1nc2c(-c3cccc(N4CC[N+](C)([O-])CC4)c3)cnn2c(N)c1-c1ccc(F)cc1 [Example 106, 6-(4-Fluoro-phenyl)-5-methyl-3-[3-(4-methyl-4-oxy-piperazin-1-yl)-phenyl]-pyrazolo[1,5-a]pyrimidin-7-ylamine] |  |  | > 10000 | < 1000
7 | Cc1nc2c(-c3cccc([N+]4([O-])CC[N+](C)([O-])CC4)c3)cnn2c(N)c1-c1ccc(F)cc1 (stereo not drawn) [Example 107, 6-(4-Fluoro-phenyl)-5-methyl-3-[3-(4-methyl-1,4-dioxy-piperazin-1-yl)-phenyl]-pyrazolo[1,5-a]pyrimidin-7-ylamine] |  |  | > 10000 | < 1000

More lines, now with the values ahead:

Row | IC50 ([1]; Table 4, read-out: s-Scr, activity (IC50 for kinase inhibition)) [nM] | melting point [°C] | IC50 [2] [nM] | IC50 [1, 3] [nM] | Structure (SMILES)
8 | < 10000 |  |  |  | COc1ccccc1-c1cnn2c(N)c(-c3cccc(O)c3)cnc12 [Example 48, 3-[7-Amino-3-(2-methoxy-phenyl)-pyrazolo[1,5-a]pyrimidin-6-yl]-phenol]
9 |  | 197 to 200 | < 1000 |  | CN1CCN(c2ccc(-c3cnn4c(N)c(-c5ccccc5Cl)cnc34)cc2)CC1 [Example 77, 6-(2-Chloro-phenyl)-3-[4-(4-methyl-piperazin-1-yl)-phenyl]-pyrazolo[1,5-a]pyrimidin-7-ylamine]
10 |  | 289 to 291 | > 10000 | < 1000 | Cc1nc2c(-c3ccc(N4CCN(C)CC4)cc3)cnn2c(N)c1-c1ccc(F)cc1 [Example 79, 6-(4-Fluoro-phenyl)-5-methyl-3-[4-(4-methyl-piperazin-1-yl)-phenyl]-pyrazolo[1,5-a]pyrimidin-7-ylamine]
11 |  | 180 to 185 | < 1000 | < 1000 | Cc1nc2c(-c3cccc(N4CCN(C5CCN(C)CC5)CC4)c3)cnn2c(N)c1-c1cccc(Cl)c1 [Example 81, 6-(3-Chloro-phenyl)-5-methyl-3-{3-[4-(1-methyl-piperidin-4-yl)-piperazin-1-yl]-phenyl}-pyrazolo[1,5-a]pyrimidin-7-ylamine]
12 |  | 107 to 113 | > 10000 | < 1000 | Cc1nc2c(-c3cccc(N4CCN(C)CC4)c3)cnn2c(N)c1-c1cccc(Br)c1 [Example 84, 6-(3-Bromo-phenyl)-5-methyl-3-[3-(4-methyl-piperazin-1-yl)-phenyl]-pyrazolo[1,5-a]pyrimidin-7-ylamine]
